# Tests used:
# S-ADH from T. brockii = target: T1, S-ADH from T. brockii (Thermoanaerobacter brockii, UniProt P14941); assay: S-ADH spectrophotometric assay, T. brockii S-ADH; assay type: biochemical, Thermoanaerobium brockii; conditions: for Relative S-ADH Activity (%) T. brockii, ketone reduction: ketone reduction rates, pH 6.2, 2.5 mM substrate, 0.2 mM NADPH, acetone = 100
# T1 sequence (P14941 1-352): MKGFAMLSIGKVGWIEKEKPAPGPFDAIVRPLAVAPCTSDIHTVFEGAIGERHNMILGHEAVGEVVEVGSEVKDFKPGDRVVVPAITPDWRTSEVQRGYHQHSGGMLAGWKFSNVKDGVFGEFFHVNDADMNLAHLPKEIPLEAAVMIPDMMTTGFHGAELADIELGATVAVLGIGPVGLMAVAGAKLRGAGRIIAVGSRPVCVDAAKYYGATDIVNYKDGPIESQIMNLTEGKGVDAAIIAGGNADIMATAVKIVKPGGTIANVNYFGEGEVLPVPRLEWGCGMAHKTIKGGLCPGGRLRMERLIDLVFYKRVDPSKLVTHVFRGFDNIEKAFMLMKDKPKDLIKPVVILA
# Protocol: […] Assays were pre-incubated for 1.5 min. at 30° C. with all assay components except substrate. Assays were initiated by addition of substrate (2.5 mM) and monitored over time by measuring the change in absorbance at 340 nm (∈340 of 6.22 mM^−1·cm^−1 for NADH).
# [1] = test system: S-ADH from X. autotrophicus strain Py2; assay: Secondary alcohol dehydrogenase NADH oxidation spectrophotometric assay; assay type: biochemical, Xanthobacter autotrophicus strain Py2; conditions: for Relative S-ADH Activity (%) X. Py2, ketone reduction: ketone reduction rates, pH 6.2, 2.5 mM substrate, 0.2 mM NADH, acetone = 100
# Protocol: (§1) Assays were performed in 2 mL quartz cuvettes and contained NAD(H) (0.2 mM), potassium phosphate buffer (25 mM), and a source of enzyme (cell-free extracts, column fractions, or purified enzyme) in a total reaction volume of 1 mL at pH 6.2 ([…]) at 30° C. Assays were pre-incubated for 1.5 min. at 30° C. with all assay components except substrate. Assays were initiated by addition of substrate (2.5 mM) and monitored over time by measuring the change in absorbance at 340 nm (∈340 of 6.22 mM^−1·cm^−1 for NADH).
# Data analysis. Kinetic constants (Km and Vmax) were calculated by fitting initial rate data to the Michaelis-Menten equation and using the software KaleidaGraph Fourth Edition, (Synergy Software, Reading, Pa.).
# [2] = test system: S-ADH from M. vaccae JOB-5; assay: S-ADH spectrophotometric assay, propane-grown M. vaccae JOB-5; assay type: biochemical, Mycobacterium vaccae strain JOB-5; conditions: for Relative S-ADH Activity (%) JOB 5, ketone reduction: ketone reduction rates, pH 6.2, 2.5 mM substrate, 0.2 mM NADH, acetone = 100
# Protocol: as §1
# S-ADH from C. boidinii = assay: S-ADH spectrophotometric assay, C. boidinii S-ADH; assay type: biochemical, Candida boidinii; conditions: pH 7.6, 5 mM substrate; for Relative S-ADH Activity (%) C. boidinii, ketone reduction: ketone reduction rates, 0.2 mM NADH, acetone = 100; for Relative S-ADH Activity (%) C. boidinii, alcohol oxidation: alcohol oxidation rates, 0.2 mM NAD+, 2-propanol = 100
# Protocol: as §1, with “Assays were initiated by addition of substrate (2.5 mM) and monitored over time by measuring the change in absorbance at 340 nm (∈340 of 6.22 mM^−1·cm^−1 for NADH).” left out
# S-ADH from strain IP-1 = assay: S-ADH spectrophotometric assay, partially purified S-ADH of isolate IP-1; assay type: biochemical, isopropanol-grown bacterial strain TDCC IP-1; conditions: for Relative S-ADH Activity (%) IP-1, ketone reduction: ketone reduction rates, pH 6.2, 2.5 mM substrate, 0.2 mM NADH, acetone = 100
# Protocol: Protein purifications. […] Secondary alcohol dehydrogenase (S-ADH) from X. autotrophicus Py2 was purified via the following protocol. Cell-free extracts (380 mL) of isopropanol-grown X. autotrophicus Py2 (150 g) were prepared as described above, and applied to a 5×15 cm column of DEAE-Sepharose FAST FLOW (Diethylaminoethyl cross-linked agarose bead material; Catalog number 17-0709-10, Amersham Pharmacia Biotech, Piscataway, N.J.)) equilibrated in buffer A (25 mM MOPS (3-(N-morpholino)propanesulfonic acid), pH 7.6, 5% glycerol, 1 mM dithiothreitol) at a flow rate of 10 mL/min. After loading, the column was washed with […] buffer A and developed with a 2400 mL linear gradient of 90-290 mM KCl in buffer A. Fractions containing S-ADH activity were pooled and dialyzed against 2 L of 25 mM potassium phosphate (pH 6.2) containing 5% glycerol (buffer B) for 16 h at 4° C. […] After washing the column with 30 mL of buffer B, S-ADH was eluted with 20 mL of buffer A containing 10 mM NAD^+. Fractions containing S-ADH were then dialyzed against 2 L of buffer A for 16 h at 4° C., concentrated by ultrafiltration (using a YM30 ultrafiltration membrane; catalog no. 13722, from Millipore, Bedford, Mass.), and frozen in liquid nitrogen. Partially purified S-ADH from bacterial screen cultures was prepared as follows: cell-free extracts from 1 to 5 g of cell paste were prepared as described above and applied to a 5 mL HI TRAP Q column (quaternary, tetraethylammonium, cross-linked agarose bead material for use as an anion exchange matrix; catalog number 17-1153-01, Amersham Pharmacia Biotech) equilibrated in 100 mM MOPS, pH 7.6, containing 5% (v/v) glycerol (buffer C). The column was washed with 10 mL buffer C and developed with a 100 mL linear gradient of 0 to 100 mM NaCl in buffer C. Fractions containing S-ADH activity were pooled, concentrated to 0.5 mL using a 30 kDa MWCO (“molecular weight cut-off”) centrifugal membrane (catalog number UFV4BTK25, Millipore), and stored at −80° C.
# as §1
# [3] = alcohol oxidation rates, pH 7.6, 2.5 mM substrate, 0.2 mM NAD+, 2-propanol = 100, NA = no activity detected
Compound,"Relative S-ADH Activity (%) T. brockii, ketone reduction (S-ADH from T. brockii)","Relative S-ADH Activity (%) X. Py2, ketone reduction [1]","Relative S-ADH Activity (%) JOB 5, ketone reduction [2]","Relative S-ADH Activity (%) C. boidinii, ketone reduction (S-ADH from C. boidinii)","Relative S-ADH Activity (%) IP-1, ketone reduction (S-ADH from strain IP-1)","Relative S-ADH Activity (%) C. boidinii, alcohol oxidation (S-ADH from C. boidinii)",other results
CCCC(C)=O [2-Pentanone],59%,198%,185%,16%,44%,,
CCCC(C)O (stereo not drawn) [2-Pentanol],,,,,,22%,"Relative S-ADH Activity (%) T. brockii, alcohol oxidation (S-ADH from T. brockii; alcohol oxidation rates, pH 7.6, 2.5 mM substrate, 0.2 mM NADP+, 2-propanol = 100, NA = no activity detected): 38%; Relative S-ADH Activity (%) X. Py2, alcohol oxidation [1, 3]: 157%; Relative S-ADH Activity (%) JOB 5, alcohol oxidation [2, 3]: 68%; Relative S-ADH Activity (%) IP-1, alcohol oxidation (S-ADH from strain IP-1; [3]): 18%"
CCCCCO [1-Pentanol],,,,,,8%,"specific activity, alcohol oxidation ([1]; at pH 7.8): No activity"
CO [methanol],,,,,,,"inhibition of S-ADH activity ([1]; saturating acetone, alcohol at about 13-fold over the Km value for acetone, data not shown): no inhibition was observed"
CCC(=O)CC [3-Pentanone],49%,180%,26%,60%,5%,,

# Reference: US7794994B2 (Kemeta, LLC, priority 2001, dated 2010)
